Reference: US9457087B2, “Stable crystal modifications of DOTAP chloride” (Merck Patent GmbH, priority 2004, dated 2016)
Blank lines part the entries; values can stand above or below the compound they belong to.

Key:
[1] = DSC principal phase transition temperatures of multilamellar liposomes in water; type: physicochemical; details: heating cycles, lipid 0.1 g/ml, 1° C./min
Method: Differential scanning caliometry (DSC) measurements are carried out on multilamellar liposomes in water. Liposomes are prepared by the thin-film method from the calculated amounts of racemic or enantiomerically pure DOTAP chloride. The lipid concentration here is in each case 0.1 g/ml. Suitable amounts of these dispersions are then introduced into sealable aluminium crucibles and measured using a 204 Phoenix calorimeter (Netzsch, Seib, Germany). In each case, three successive heating/cooling runs from −50° C. to +20° C. are carried out at 1° C./min.
For all three DOTAP chloride variants, phase transition temperatures below 0° C. are found. For the cooling cycles, this is in each case at −23° C. to −24° C. Differences between racemic and enantiomerically pure DOTAP chloride are in each case evident in the heating cycles. […] (see FIG. 6).

[2] = Solubility in acetonitrile; type: physicochemical; details: room temperature
[3] = Storage stability of crystalline DOTAP chlorides (HPLC purity and content); type: physicochemical; details: 25° C., 60% relative humidity, exclusion of air
Method: In order to determine the stability of crystalline DOTAP chlorides, the substances are stored together with comparative samples at 25° C. and 60% relative humidity with exclusion of air. The remaining content of DOTAP chloride is measured at periodic intervals and quoted in comparison to the initial value.
The purity and content of DOTAP chloride are determined by means of HPLC.

[4] = Hygroscopicity at normal atmospheric humidity; type: physicochemical; details: normal atmospheric humidity levels
[5] = storage under protective gas at −20° C.; guaranteed by manufacturer; cited from earlier work

SMILES: CCCCCCCC/C=C\CCCCCCCC(=O)OCC(C[N+](C)(C)C)OC(=O)CCCCCCC/C=C\CCCCCCCC.[Cl-] (racemic) [racemate, N,N,N-trimethyl-2,3-bis[[(9Z)-1-oxo-9-octadecenyl]oxy]-1-propanaminium chloride]
endothermic phase transition temperature [1]: −17.5 °C
solubility in acetonitrile [2]: virtually insoluble

SMILES: CCCCCCCC/C=C\CCCCCCCC(=O)OCC(C[N+](C)(C)C)OC(=O)CCCCCCC/C=C\CCCCCCCC.[Cl-] (racemic) [(R,S)-DOTAP chloride crystalline type I, N,N,N-trimethyl-2,3-bis[[(9Z)-1-oxo-9-octadecenyl]oxy]-1-propanaminium chloride]
% by weight (content of DOTAP chloride) ([3]; exposure time 0 months): 98.6%
Area-% (HPLC purity) ([3]; exposure time 0 months): 100%
% by weight (content of DOTAP chloride) ([3]; exposure time 1 month): 97.%
Area-% (HPLC purity) ([3]; exposure time 1 month): 100.0%
% by weight (content of DOTAP chloride) ([3]; exposure time 2 months): 97.9%
Area-% (HPLC purity) ([3]; exposure time 2 months): 100.0%
% by weight (content of DOTAP chloride) ([3]; exposure time 3 months): 97.2%
Area-% (HPLC purity) ([3]; exposure time 3 months): 100.0%
% by weight (content of DOTAP chloride) ([3]; exposure time 6 months): 98.2%
Area-% (HPLC purity) ([3]; exposure time 6 months): 100.0%
% by weight (content of DOTAP chloride) ([3]; exposure time 12 months): 98.7%
Area-% (HPLC purity) ([3]; exposure time 12 months): 100.0%

endothermic phase transition temperature [1]: around −12.5 °C
SMILES: CCCCCCCC/C=C\CCCCCCCC(=O)OC[C@H](C[N+](C)(C)C)OC(=O)CCCCCCC/C=C\CCCCCCCC.[Cl-] [(2S)-DOTAP]

endothermic phase transition temperature [1]: around −12.5 °C
SMILES: CCCCCCCC/C=C\CCCCCCCC(=O)OC[C@@H](C[N+](C)(C)C)OC(=O)CCCCCCC/C=C\CCCCCCCC.[Cl-] [(2R)-DOTAP chloride]

SMILES: CCCCCCCC/C=C\CCCCCCCC(=O)OCC(C[N+](C)(C)C)OC(=O)CCCCCCC/C=C\CCCCCCCC.[Cl-] (stereo not drawn) [amorphous DOTAP chloride]
hygroscopicity [4]: extremely hygroscopic
shelf life [5]: about 6 months
